Literature values, collected in US4464385A, “Treatment of diabetic complications with hydantoins” (Alcon Laboratories, Inc., priority 1982, dated 1984).

Test system: aldose reductase
Details: U.S. Pat. No. 4,130,714; cited from earlier work

SMILES: O=C1NC(=O)C2(CCSc3ccc(F)cc32)N1 (single isomer, unassigned) [d-6'-fluoro-spiro[imidazolidine-4,4'-thiochroman]-2,5' dione]
- activity in preventing chronic diabetic complications: enhanced activity
